{
  "source": "patent US20240377291A1",
  "about": "“AZETIDINE SUBSTITUTED ROSAMINES USEFUL FOR STAINING MITOCHONDRIA” (TOCRIS COOKSON LIMITED, priority 2021, published 2024)",
  "type_in_all_cases": "cell-based",
  "key": {"[1]": {"system": "mitochondria in COS-7 cells", "assay": "Staining of COS-7 cells at varying concentrations followed by PFA fixation, spinning disk confocal imaging", "settings": "for toxicity at 200 nM: 30 minutes; for mitochondrial staining at low concentrations: then 4% PFA fixation; for effect of high concentration on mitochondria (fragmentation and peri-nuclear clustering suggesting toxic effects): above 200 nM", "protocol": "Both COMPOUND 5 and the Comparator show some toxicity at 200 nM. COMPOUND 5 gives nice staining at 25-100 nM.\nIn FIG. 4 (scale bar=10 μm), images are shown after COS-7 cells were stained for 30 minutes with indicated concentrations followed by immediate fixation with 4% PFA for 20 minutes at 37° C. Images were acquired using a spinning disk confocal microscope with identical exposure time and laser power and were processed with identical settings to allow a direct comparison."}, "[2]": {"system": "mitochondria in COS-7 cells", "assay": "Mitochondrial membrane de-polarisation experiments (CCCP) in COS-7 cells", "settings": "for mitochondrial signal after CCCP Chase (depolarization after staining) / mitochondrial accumulation after depolarizing the membrane potential with CCCP before staining: 100 nM dye 30 minutes; for mitochondrial signal after CCCP Chase (depolarization after staining): then 20 μM CCCP 30 minutes; for mitochondrial accumulation after depolarizing the membrane potential with CCCP before staining: 20 μM CCCP pre-treatment 30 minutes", "protocol": "COS-7 cells were pre-treated with media or 20 μM CCCP for 30 minutes followed by a staining step with 100 nM COMPOUND 5 or 100 nM Comparator (MitoTracker Deep Red FM) for 30 minutes in the presence/absence of 20 μM CCCP. After the staining, excessive dye was washed out with media, with or without 20 μM CCCP for 30 minutes."}, "[3]": {"system": "mitochondria in HeLa cells", "assay": "Post-fixation staining of HeLa cells, intensity profiles compared with a Comparator added before fixation", "settings": "HeLa cells fixed with 4% PFA 20 min; COMPOUND 5 75 nM added after fixation", "protocol": "COMPOUND 5 and the Comparator have distinct absorption and emission maxima. Intensity profiles (lower panel) taken across a set frame are shown for both COMPOUND 5 and Comparator.\nLive HeLa cells were stained with a Comparator (250 nM, 45 min) and were then fixed (4% PFA, 20 min). After fixation, COMPOUND 5 (75 nM) was added and the cells were imaged. COMPOUND 5 and Comparator have distinct absorption and emission profiles and spill over between channels was not observed. Intensity profiles for both mitochondrial stains were taken across a set frame (lower panel) and compared."}, "[4]": {"system": "mitochondria in HeLa cells", "assay": "Co-staining of COMPOUND 5 with DRP1 antibody NBP2-23489 on fixed, permeabilized HeLa cells", "settings": "200 nM, 15 minutes, room temperature", "protocol": "NBP2-23489 was incubated on fixed, permeabilized HeLa cells at 8 μg/mL for 2 hours at room temperature. Cells were then incubated with an NL557 secondary antibody (R&D Systems; Catalog #NL007) for 1 hour at room temperature protected from light. Lastly, cells were incubated with COMPOUND 5 at 200 nM for 15 minutes at room temperature protected from light. Cells were cover-slipped with a DAPI-containing mounting media and imaged. Antibody staining was pseudo-coloured green, and mitochondrial marker staining was pseudo-coloured red."}, "[5]": {"system": "mitochondria in HeLa cells", "assay": "Staining of HeLa cells at a single concentration followed by fixation", "settings": "100 nM probe 40 minutes, then 4% PFA 10 minutes", "protocol": "In FIG. 5 (scale bar=10 μm), images are shown after HeLa cells were stained with 100 nM probe for 40 minutes, followed by fixation with 4% PFA for 10 minutes. Laser power and gain have been optimized for each individual probe in this figure."}, "[6]": {"system": "mitochondria in HeLa cells", "assay": "Co-localization with TOM20 antibody in fixed HeLa cells (probe added before fixation)", "source_text": "In each experiment, an antibody for the mitochondrial marker TOM20 has also been added. Co-localization of TOM20 and mitochondrial probes is directly compared in the merged data."}},
  "data": [
    {"molecule": "C[N+]1=C(/C=C/C=C/C=C2\\N(Cc3ccc(CCl)cc3)c3ccccc3C2(C)C)C(C)(C)c2ccccc21.[Cl-]", "note": "[Comparator, MitoTracker Deep Red FM, reference compound]", "values": [
      {"measurement": "toxicity at 200 nM", "setting": "[1]; COS-7 cells", "value": "some toxicity"},
      {"measurement": "mitochondrial staining at low concentrations", "setting": "[1]; COS-7 cells, 25-100 nM, 30 min", "value": "decreased at low concentration"},
      {"measurement": "effect of high concentration on mitochondria (fragmentation and peri-nuclear clustering suggesting toxic effects)", "setting": "[1]; COS-7 cells", "value": "mitochondrial alterations"},
      {"measurement": "staining of non-mitochondrial structures (ER, nuclear envelope) at high concentrations", "setting": "[1]; COS-7 cells", "value": "stained additionally other cellular structures"},
      {"measurement": "mitochondrial signal after CCCP Chase (depolarization after staining)", "setting": "[2]", "value": "reversible"},
      {"measurement": "mitochondrial accumulation after depolarizing the membrane potential with CCCP before staining", "setting": "[2]", "value": "reduces the mitochondrial accumulation"}
    ]},
    {"molecule": "C[Si]1(C)C2=CC(=[N+]3CCC3)C=CC2=C(c2ccccc2CCl)c2ccc(N3CCC3)cc21", "note": "[COMPOUND 5, 1-(7-(azetidin-1-yl)-10-(2-(chloromethyl)phenyl)-5,5-dimethyldibenzo[b,e]silin-3(5H)-ylidene)azetidin-1-ium chloride]", "values": [
      {"measurement": "staining profile when added after fixation, compared with Comparator added before fixation", "setting": "[3]", "value": "very high similarity in staining profile"},
      {"measurement": "toxicity at 200 nM", "setting": "[1]; COS-7 cells", "value": "some toxicity"},
      {"measurement": "toxicity at low concentrations", "setting": "[1]; COS-7 cells, 25-100 nM, 30 min", "value": "no obvious toxicity"},
      {"measurement": "mitochondrial staining at low concentrations", "setting": "[1]; COS-7 cells, 25-100 nM, 30 min", "value": "good mitochondrial signal with little background"},
      {"measurement": "effect of high concentration on mitochondria (fragmentation and peri-nuclear clustering suggesting toxic effects)", "setting": "[1]; COS-7 cells", "value": "mitochondrial alterations"},
      {"measurement": "staining of non-mitochondrial structures (ER, nuclear envelope) at high concentrations", "setting": "[1]; COS-7 cells", "value": "stained additionally other cellular structures"},
      {"measurement": "brightness compared to the Comparator", "setting": "[1]; fixed COS-7 cells, particularly at 25 nM and 50 nM", "value": "significantly improved brightness"},
      {"measurement": "mitochondrial localization (overlap with antibody staining)", "setting": "[4]", "value": "localizes specifically to the mitochondria"},
      {"measurement": "staining of mitochondria following fixation compared to a Comparator", "setting": "[5]", "value": "retains clearer staining of mitochondria"},
      {"measurement": "mitochondrial signal after CCCP Chase (depolarization after staining)", "setting": "[2]", "value": "strong mitochondrial signal"},
      {"measurement": "mitochondrial accumulation after depolarizing the membrane potential with CCCP before staining", "setting": "[2]", "value": "reduces the mitochondrial accumulation"},
      {"measurement": "speed of mitochondrial staining relative to Comparator", "setting": "[2]; inferred from CCCP chase", "value": "more rapidly than the Comparator"}
    ]},
    {"molecule": "ClCc1ccccc1-c1c2ccc(=[N+]3CCC3)cc-2oc2cc(N3CCC3)ccc12", "note": "[COMPOUND 8, 1-(6-(azetidin-1-yl)-9-(2-(chloromethyl)phenyl)-3H-xanthen-3-ylidene)azetidin-1-ium chloride]", "values": [
      {"measurement": "co-localization with mitochondrial marker TOM20 after fixation", "setting": "[6]", "value": "co-localize with the mitochondrial marker TOM20"}
    ]},
    {"molecule": "COC1CN(c2ccc3c(-c4ccccc4CCl)c4ccc(=[N+]5CC(OC)C5)cc-4oc3c2)C1", "note": "(centres unmarked) [COMPOUND 9, 1-(9-(2-(chloromethyl)phenyl)-6-(3-methoxyazetidin-1-yl)-3H-xanthen-3-ylidene)-3-methoxyazetidin-1-ium chloride]", "values": [
      {"measurement": "co-localization with mitochondrial marker TOM20 after fixation", "setting": "[6]", "value": "co-localize with the mitochondrial marker TOM20"}
    ]}
  ]
}
